Some test systems named below: OVCAR-4 ovarian; ACHN renal; SF-539 CNS; TK-10 renal; MDA-N; HCT-116 colon; KM12 colon; SK-MEL-2 melanoma; NCI-H522 lung; NCI-H226 lung; HL-60(TB) leukemia; SR leukemia; BT-549 breast; OVCAR-3 ovarian; SF-268 CNS; NCI-H23 lung; A498 renal; UACC-62 melanoma; MCF7 breast.
What all share (assay): NCI anticancer screen, dose series, 48 h

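Values below derive from 48-hour exposures of cells grown in 96-well plates, with endpoints linearly interpolated between the two concentrations bracketing the appropriate inhibition level. Definition used: TGI = concentration required for complete inhibition of growth.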

On to `CCc1cc2c(oc3cc4ccccc4cc32)c(=O)[nH]1`, for which the TGI with OVCAR-4 ovarian, in the experiment on ACHN renal, in the experiment on SF-539 CNS, with TK-10 renal, with MDA-N and in the experiment with HCT-116 colon was more than 10 µM throughout. Further, the TGI in the experiment with KM12 colon, in the experiment with SK-MEL-2 melanoma, in the experiment with NCI-H522 lung, with NCI-H226 lung, with HL-60(TB) leukemia and in the experiment on SR leukemia was more than 10 µM each time. Further, the TGI with BT-549 breast, with OVCAR-3 ovarian and with SF-268 CNS was more than 10 µM in each case.

In the case of `O=C(O)CC1NC(/C(=C/c2ccccc2)NC(=O)c2ccccc2)OC1=O` (stereo not drawn), the TGI in the experiment with NCI-H23 lung was more than 100 µM; in the experiment on OVCAR-4 ovarian it was more than 100 µM; with ACHN renal, more than 100 µM; in the experiment with SF-539 CNS, 44.2 µM; in the experiment on A498 renal it was more than 100 µM; in the experiment on TK-10 renal, more than 100 µM. Besides, the TGI in the experiment on MDA-N was 86.4 µM; in the experiment on UACC-62 melanoma it was 57.9 µM; with HCT-116 colon it was 42.9 µM; with KM12 colon, 34.1 µM; in the experiment on SK-MEL-2 melanoma it was 66.6 µM; in the experiment on NCI-H522 lung it was 33.5 µM. The TGI in the experiment with NCI-H226 lung was 98.6 µM; in the experiment with MCF7 breast it was more than 100 µM; in the experiment with HL-60(TB) leukemia, 38 µM; in the experiment on BT-549 breast, 44.2 µM; in the experiment on OVCAR-3 ovarian it was 51.2 µM; in the experiment on SF-268 CNS, more than 100 µM.

With `O=C(O)c1ccc(N=C(C(=Nc2ccc(C(=O)O)cc2)c2ccccc2)c2ccccc2)cc1`, the TGI with NCI-H23 lung, with OVCAR-4 ovarian, in the experiment with ACHN renal, with A498 renal, in the experiment with TK-10 renal and in the experiment on MDA-N was more than 100 µM throughout. Besides, the TGI in the experiment on UACC-62 melanoma, in the experiment with HCT-116 colon, in the experiment with KM12 colon, with SK-MEL-2 melanoma, in the experiment with NCI-H226 lung and in the experiment with MCF7 breast was more than 100 µM each time. The TGI with SR leukemia, in the experiment on BT-549 breast, in the experiment with OVCAR-3 ovarian and in the experiment with SF-268 CNS was more than 100 µM throughout.

As to `CC(C)(C)[Si](C)(C)OCC1OC(n2ccc(N)nc2=O)C(O[Si](C)(C)C(C)(C)C)C1O[Si](C)(C)C(C)(C)C` (stereo not drawn), the TGI in the experiment on OVCAR-4 ovarian was determined as 2.21 µM; in the experiment with ACHN renal, 3.21 µM; in the experiment with MDA-N, 13 µM; in the experiment with UACC-62 melanoma it was 3.64 µM; in the experiment on HCT-116 colon it was 11.6 µM; in the experiment with SK-MEL-2 melanoma, 4.89 µM. Besides, the TGI is 3.36 µM with NCI-H522 lung; 2.86 µM in the experiment with NCI-H226 lung; 5.33 µM with MCF7 breast; 6.66 µM in the experiment on SR leukemia; 3.73 µM with BT-549 breast; 3.3 µM in the experiment on OVCAR-3 ovarian. Moreover, in the experiment with SF-268 CNS, the TGI came to 7.27 µM.

Regarding `COCC1OC(Sc2ccccc2)C(O)C(OC)C1OC` (stereo not drawn), the TGI in the experiment with NCI-H23 lung, in the experiment on OVCAR-4 ovarian, with ACHN renal, in the experiment with SF-539 CNS, in the experiment on TK-10 renal and in the experiment with MDA-N was more than 100 µM throughout. Also, the TGI in the experiment on UACC-62 melanoma, in the experiment on HCT-116 colon, with KM12 colon, in the experiment on SK-MEL-2 melanoma, in the experiment with NCI-H522 lung and with NCI-H226 lung was more than 100 µM in each case. Further, the TGI in the experiment with MCF7 breast, with HL-60(TB) leukemia, in the experiment on SR leukemia, with BT-549 breast, in the experiment on OVCAR-3 ovarian and with SF-268 CNS was more than 100 µM throughout.

With `Nc1ccc2c(c1)N(C(=O)c1cc3cc(NC(=O)c4cc5ccccc5o4)ccc3[nH]1)CC2CCl` (stereo not drawn), the TGI came to 0.161 µM with NCI-H23 lung; 3.71 µM in the experiment on OVCAR-4 ovarian; 11.6 µM in the experiment on ACHN renal; 0.544 µM in the experiment with A498 renal; 2.07 µM in the experiment on TK-10 renal; 0.512 µM with MDA-N. The TGI was 0.794 µM in the experiment with UACC-62 melanoma; more than 32.2 µM in the experiment with HCT-116 colon; 2.37 µM in the experiment on KM12 colon; 0.398 µM in the experiment on SK-MEL-2 melanoma; 0.329 µM in the experiment with NCI-H226 lung; 2.38 µM with MCF7 breast. Moreover, the TGI in the experiment on HL-60(TB) leukemia was more than 100 µM; with BT-549 breast, 1.9 µM; in the experiment on OVCAR-3 ovarian it was 0.56 µM.

With `Nc1ncnc2c1ccn2C/C=C\CO`, the TGI in the experiment with NCI-H23 lung, in the experiment on OVCAR-4 ovarian, with ACHN renal, in the experiment on SF-539 CNS, with A498 renal and in the experiment with TK-10 renal was more than 100 µM throughout. The TGI with MDA-N, with UACC-62 melanoma, with HCT-116 colon, in the experiment on KM12 colon, in the experiment with SK-MEL-2 melanoma and in the experiment with NCI-H522 lung was more than 100 µM in each case. Besides, the TGI with MCF7 breast, in the experiment with HL-60(TB) leukemia, in the experiment on BT-549 breast, with OVCAR-3 ovarian and with SF-268 CNS was more than 100 µM each time.

Regarding `O=c1cc(N2CCOCC2)[nH]c(=O)n1-c1ccc(F)cc1`, the TGI in the experiment with NCI-H23 lung, in the experiment with OVCAR-4 ovarian, in the experiment on ACHN renal, in the experiment with SF-539 CNS, in the experiment with A498 renal and with TK-10 renal was more than 100 µM in each case. Besides, the TGI in the experiment on MDA-N, with UACC-62 melanoma, with HCT-116 colon, with KM12 colon, in the experiment on SK-MEL-2 melanoma and in the experiment on NCI-H522 lung was more than 100 µM in each case. For the same molecule, the TGI with NCI-H226 lung, with MCF7 breast, in the experiment on HL-60(TB) leukemia, in the experiment with BT-549 breast, with OVCAR-3 ovarian and with SF-268 CNS was more than 100 µM in each case.

Take `CC(C)(Br)C(Br)CCC1(C2CO2)CO1` (stereo not drawn): the TGI with NCI-H23 lung, in the experiment with OVCAR-4 ovarian, with ACHN renal, in the experiment on SF-539 CNS, in the experiment with A498 renal and with MDA-N was more than 5 µM each time. In addition, the TGI in the experiment with HCT-116 colon, in the experiment with NCI-H522 lung, in the experiment on NCI-H226 lung, with MCF7 breast, with BT-549 breast and in the experiment with OVCAR-3 ovarian was more than 5 µM each time. The TGI in the experiment on SF-268 CNS was more than 5 µM.

The record behind these values is PubChem BioAssay (NCI).
